Measurements: patent US20130267474A1, “NOVEL PHYTOCHEMICALS FROM EXTRACTS OF MAPLE SYRUPS AND MAPLE TREES AND USES THEREOF” (UNIVERSITY OF RHODE ISLAND, priority 2010, published 2013)
Where two headings read alike, the source gives them in different places.

Assays:
[1] = DPPH radical scavenging (antioxidant) assay; format: biochemical; conditions: for IC50, DPPH radical scavenging, converted (ca.): conversion of the μM value
Protocol: The DPPH radical scavenging activity of ascorbic acid (vitamin C) and the synthetic commercial antioxidant, butylated hydroxytoluene (BHT) are also assayed as positive controls (see Table 10). […] Absorbance is determined after 30 min at 515 nm, and the scavenging capacity (SC) is calculated as SC %=[(A0−A1/A0)]×100, where A0 is the absorbance of the reagent blank and A1 is the absorbance of the test samples. The control contained all reagents except the compounds, and all tests are performed in triplicate.
Absorbance is determined after 30 min at 515 nm, and the scavenging capacity (SC) is calculated as SC %=[(A0−A1/A0)]×100 where A0 is the absorbance of the reagent blank, and A1 is the absorbance with test samples. The control contained all reagents except the compounds and all tests are performed in triplicate.

[2] = tested on: HT-29 (human colon adenocarcinoma); experiment: MTS cytotoxicity / antiproliferative assay; format: cell-based
Protocol: (§1) Cell lines included three human colon cancer cells: HT-29 (human colon adenocarcinoma), HCT116 (human colon carcinoma) and Caco-2 (human epithelial colorectal adenocarcinoma). In addition, normal human colon cells are included: CCD-^18Co (human colon fibroblasts). All cell lines are obtained from the American Type Culture Collection (ATCC, Rockville, Md., USA) and maintained at the University of Rhode Island.
(§2) The assay is carried out to measure the IC50 values for samples. […] Test samples and a positive control, etoposide 4 mg/mL (Sigma), are solubilized in DMSO by sonication. […] Control wells are also included on all plates. […] Each point on the curve is […]. Data (see tables 6 to 9) are expressed as mean±SE for three replications on each cell line.

[3] = tested on: HCT-116 (human colon carcinoma); experiment: MTS cytotoxicity / antiproliferative assay; format: cell-based
Protocol: as §1, §2

[4] = tested on: Caco-2 (human epithelial colorectal adenocarcinoma); experiment: MTS cytotoxicity / antiproliferative assay; format: cell-based
Protocol: as §1, §2

[5] = Table 10, mean ± standard deviation, 30 min, 515 nm, read-out: IC50 (μM), DPPH radical scavenging
[6] = Homo sapiens, HT-29, 48 h, read-out: HT-29 48 h(IC50), Table 6 maple compounds, 48 h, unit inferred
[7] = Homo sapiens, HT-29, 72 h, Table 6 maple compounds, 72 h, unit inferred, read-out: HT-29 72 h(IC50)
[8] = Homo sapiens, HCT-116, 48 h, read-out: HCT-116 48 h(IC50), Table 6 maple compounds, 48 h, unit inferred
[9] = Homo sapiens, HCT-116, 72 h, Table 6 maple compounds, 72 h, unit inferred, read-out: HCT-116 72 h(IC50)
[10] = Homo sapiens, HT-29, 72 h, 72 h, pure isolated compounds, read-out: Antiproliferative activity HT-29 72 h (IC50)
[11] = Homo sapiens, Caco-2, 48 h, read-out: Antiproliferative activity Caco-2 48 h (IC50), 48 h, pure isolated compounds
[12] = Homo sapiens, Caco-2, 48 h, read-out: Caco-2 48 h(IC50), Table 6 maple compounds, 48 h, unit inferred
[13] = Homo sapiens, Caco-2, 72 h, 72 h, pure isolated compounds, read-out: Antiproliferative activity Caco-2 72 h (IC50)
[14] = Homo sapiens, Caco-2, 72 h, Table 6 maple compounds, 72 h, unit inferred, read-out: Caco-2 72 h(IC50)
[15] = Homo sapiens, HCT-116, 48 h, read-out: Antiproliferative activity HCT-116 48 h (IC50), 48 h, pure isolated compounds
[16] = Homo sapiens, HCT-116, 72 h, 72 h, pure isolated compounds, read-out: Antiproliferative activity HCT-116 72 h (IC50)
[17] = Homo sapiens, HCT-116, 72 h, 72 h, range given for the group, read-out: IC50 against HCT-116 cells at 72 h (activity ranking)
[18] = Homo sapiens, HT-29, 48 h, read-out: Antiproliferative activity HT-29 48 h (IC50), 48 h, pure isolated compounds

2,4,5-trihydroxyacetophenone [compound 13]
IC50 [1, 5]: 68.9 ± 5.7 µM

5-(3″,4″-dimethoxyphenyl)-3-hydroxy-3-(4′-hydroxy-3′-methoxybenzyl)-4-hydroxymethyl-dihydrofuran-2-one [compound 24]
IC50 [1, 5]: 254 ± 32.5 µM

O=C1O[C@H]([C@@H](O)CO)C(O)=C1O [Ascorbic acid, reference compound]
IC50 [1, 5]: 40.2 ± 13.4 µM
IC50, DPPH radical scavenging, converted (ca.) [1]: ca. 7.08 μg/mL
IC50 ([1]; listed as Vitamin C, read-out: IC50, DPPH radical scavenging (text)): 40 µM
IC50 ([1]; listed as vitamin C, read-out: IC50, DPPH radical scavenging (text)): 58 µM

Cc1cc(C(C)(C)C)c(O)c(C(C)(C)C)c1 [BHT, butylated hydroxytoluene, reference compound]
IC50 [1, 5]: 3000 ± 1120 µM
IC50, DPPH radical scavenging, converted (ca.) [1]: ca. 660 μg/mL
IC50 ([1]; running text, listed as butylatedhydroxytoluene, read-out: IC50, DPPH radical scavenging (text)): 2650 µM
IC50 ([1]; running text, read-out: IC50, DPPH radical scavenging (text)): 3000 µM

COc1cc(/C=C/C(=O)O)ccc1O [Ferulic Acid]
IC50 [2, 6]: 128 µM
IC50 [2, 7]: 121 µM
IC50 [3, 8]: 119 µM
IC50 [3, 9]: 104 µM

COc1cc([C@@H](O)[C@@H](CO)Oc2ccc(CCCO)cc2OC)ccc1O [compound 6, erythro-guaiacylglycerol-β-O-4′-dihydroconiferyl alcohol]
IC50 [2, 10]: 110 ± 2 µM
IC50 [2, 7]: 110 µM
IC50 [4, 11]: 93.9 ± 2 µM
IC50 [4, 12]: 93.9 µM
IC50 [4, 13]: 88.5 ± 1 µM
IC50 [4, 14]: 88.5 µM
IC50 [3, 15]: 107 ± 2.3 µM
IC50 [3, 8]: 107 µM
IC50 [3, 16]: 98.6 ± 3.2 µM
IC50 [3, 17]: 94 to 110 µM
IC50 [3, 9]: 98.6 µM

COc1cc(C=O)cc(OC)c1O [compound 16, syringaldehyde]
IC50 ([2]; Homo sapiens, HT-29, 48 h, read-out: Antiproliferative activity HT-29 48 h (IC50)): 90.7 ± 3 µM
IC50 ([2]; Homo sapiens, HT-29, 48 h, read-out: HT-29 48 h(IC50)): 90.7 µM
IC50 ([2]; Homo sapiens, HT-29, 72 h, read-out: Antiproliferative activity HT-29 72 h (IC50)): 68.6 ± 1.4 µM
IC50 ([2]; Homo sapiens, HT-29, 72 h, read-out: HT-29 72 h(IC50)): 68.6 µM
IC50 ([4]; Homo sapiens, Caco-2, 48 h, read-out: Antiproliferative activity Caco-2 48 h (IC50)): 59.4 ± 2.7 µM
IC50 ([4]; Homo sapiens, Caco-2, 48 h, read-out: Caco-2 48 h(IC50)): 59.4 µM
IC50 ([4]; Homo sapiens, Caco-2, 72 h, read-out: Antiproliferative activity Caco-2 72 h (IC50)): 35.9 ± 2.4 µM
IC50 ([4]; Homo sapiens, Caco-2, 72 h, read-out: Caco-2 72 h(IC50)): 35.9 µM
IC50 ([3]; Homo sapiens, HCT-116, 48 h, read-out: Antiproliferative activity HCT-116 48 h (IC50)): 66.8 ± 1.3 µM
IC50 ([3]; Homo sapiens, HCT-116, 48 h, read-out: HCT-116 48 h(IC50)): 66.8 µM
IC50 ([3]; Homo sapiens, HCT-116, 72 h, read-out: Antiproliferative activity HCT-116 72 h (IC50)): 56.3 ± 1.8 µM
IC50 ([3]; Homo sapiens, HCT-116, 72 h, read-out: HCT-116 72 h(IC50)): 56.3 µM
IC50 ([3]; Homo sapiens, HCT-116, 72 h, read-out: IC50 against HCT-116 cells at 72 h (activity ranking)): 42 to 67 µM

O=C(O)c1cc(O)c(O)c(O)c1 [compound 17, gallic acid]
IC50 [4, 13]: 89.3 ± 1.7 µM
IC50 [4, 14]: 89.3 µM
IC50 [3, 15]: 64.9 ± 2.3 µM
IC50 [3, 8]: 64.9 µM
IC50 [3, 16]: 42.1 ± 1.9 µM
IC50 [3, 17]: 42 to 67 µM
IC50 [3, 9]: 42.1 µM

COc1cc(C(=O)O)cc(OC)c1O [compound 19, syringic acid]
IC50 [2, 18]: 126 ± 1.8 µM
IC50 [2, 6]: 126 µM
IC50 [2, 10]: 116 ± 1.8 µM
IC50 [2, 7]: 116 µM
IC50 [3, 15]: 119 ± 1.3 µM
IC50 [3, 8]: 119 µM
IC50 [3, 16]: 108 ± 0.9 µM
IC50 [3, 17]: 94 to 110 µM
IC50 [3, 9]: 108 µM

COc1cc(/C=C/CO)ccc1O [compound 21, (E)-coniferol]
IC50 [2, 10]: 113 ± 1.9 µM
IC50 [2, 7]: 113 µM
IC50 [4, 11]: 112 ± 2 µM
IC50 [4, 12]: 116 µM
IC50 [4, 13]: 96.4 ± 2.9 µM
IC50 [4, 14]: 96.4 µM
IC50 [3, 15]: 111 ± 1.5 µM
IC50 [3, 8]: 111 µM
IC50 [3, 16]: 84.6 ± 1.9 µM
IC50 ([3]; Homo sapiens, HCT-116, 72 h, 72 h, range given for the group, unit inferred, read-out: IC50 against HCT-116 cells at 72 h (moderately active group)): 75 to 85 µM
IC50 [3, 9]: 84.6 µM

COc1cc(C(O)C(CO)Oc2c(OC)cc(C(O)C(O)CO)cc2OC)ccc1O (stereo not drawn) [compound 25, (erythro,erythro)-1-[4-[2-hydroxy-2-(4-hydroxy-3-methoxyphenyl)-1-(hydroxymethyl)ethoxy]-3,5-dimethoxyphenyl]-1,2,3-propanetriol]
IC50 [1, 5]: 97.8 ± 24 µM

COc1cc(C(O)C(CO)Oc2ccc(C(O)C(O)CO)cc2OC)ccc1O (stereo not shown) [compound 27]
IC50 [1, 5]: 164 ± 15.2 µM

COc1cc(C(O)C(CO)Oc2ccc(C(O)C(O)CO)cc2OC)ccc1O (stereo not shown) [compound 28]
IC50 [1, 5]: 814 ± 37.7 µM

COc1cc([C@@H](O)[C@@H](CO)Oc2ccc(CCCO)cc2OC)ccc1O [compound 29, threo-guaiacylglycerol-β-O-4′-dihydroconiferyl alcohol]
IC50 [1, 5]: 139 ± 13.3 µM

COc1cc(C(O)C(CO)Oc2c(OC)cc(CCCO)cc2OC)ccc1O (stereo not drawn) [compound 30, erythro-1-(4-hydroxy-3-methoxyphenyl)-2-[4-(3-hydroxypropyl)-2,6-dimethoxyphenoxy]-1,3-propanediol]
IC50 [1, 5]: 904 µM

Oc1ccc(O)c(O)c1 [compound 52, 4-hydroxycatechol]
IC50 [2, 18]: 110 ± 2.3 µM
IC50 [2, 10]: 100 ± 1.5 µM
IC50 [4, 11]: 89.2 ± 1.9 µM
IC50 [4, 13]: 78.6 ± 1.2 µM
IC50 [3, 15]: 95 ± 3.4 µM
IC50 [3, 16]: 57.7 ± 3.4 µM
IC50 [3, 17]: 42 to 67 µM

COc1cc(CCCO)ccc1OC(CO)C(O)c1ccc(OC2OC(C)C(O)C(O)C2O)c(OC)c1 (stereo not shown) [compound 55]
IC50 [2, 18]: 128.2 ± 1.1 µM
IC50 [2, 10]: 121 ± 1.3 µM
IC50 [3, 15]: 119 ± 1.4 µM
IC50 [3, 16]: 104 ± 1.7 µM
IC50 [3, 17]: 94 to 110 µM

O=C(O[C@H]1CO[C@H](CO)[C@@H](O)[C@@H]1O)c1cc(O)c(O)c(O)c1 [compound 72, ginnalin-C]
HT-29 48 h IC50 ([2]; 48 h, ginnalins): 33.8 ± 2.0 µg/mL
HT-29 72 h IC50 ([2]; 72 h, ginnalins): 30.1 ± 1.3 µg/mL
IC50 ([2]; Table 6 maple compounds, 72 h, unit inferred, read-out: HT-29 72 h(IC50)): 95.4 µM
IC50 ([2]; read-out: HT-29 48 h(IC50), Table 6 maple compounds, 48 h, unit inferred): 107 µM
Caco-2 48 h IC50 ([4]; 48 h, ginnalins): 35.0 ± 1.4 µg/mL
Caco-2 72 h IC50 ([4]; 72 h, ginnalins): 29.8 ± 1.2 µg/mL
IC50 ([4]; Table 6 maple compounds, 72 h, unit inferred, read-out: Caco-2 72 h(IC50)): 94.4 µM
IC50 ([4]; read-out: Caco-2 48 h(IC50), Table 6 maple compounds, 48 h, unit inferred): 111 µM
HCT-116 48 h IC50 ([3]; 48 h, ginnalins): 27.0 ± 1.9 µg/mL
HCT-116 72 h IC50 ([3]; 72 h, ginnalins): 22.3 ± 2.4 µg/mL
IC50 ([3]; Table 6 maple compounds, 72 h, unit inferred, read-out: HCT-116 72 h(IC50)): 70.7 µM
IC50 ([3]; read-out: HCT-116 48 h(IC50), Table 6 maple compounds, 48 h, unit inferred): 86.5 µM

O=C(O)/C=C/c1ccc(O)cc1 [p-Coumaric Acid]
IC50 [3, 9]: 124 µM

catechaldehyde [compound 14]
IC50 [1, 5]: 694 ± 110 µM

catechol [compound 23]
IC50 [1, 5]: 10100 ± 1670 µM
